PubChem BioAssay AID1361 (SRMLSC, 2008)
The source made the active and inactive calls. The rule behind the calls is not given here.

Assay: mitochondrial fusion inhibitors, confirmation, cell-based, chemical genetic, wild-type and mutant (AID 1361)
Conditions: Cell-based mitochondrial fusion phenotype, imaging
[1] = mutant cells, measured here: mutant cell line IC50

| SMILES | IC50 (WT cells) | IC50 [1] |
| --- | --- | --- |
| COC(=O)CNC(c1ccccc1)c1cc(Cl)ccc1NC(=O)c1cccc(Cl)c1 (centres undefined) | 10.4 µM | > 25 µM |
| COC(=O)c1ccn(C(=O)c2ccc(Cl)cc2)n1 | > 25 µM (inactive) | > 25 µM |
| COc1ccccc1CNc1nc2nc(C)c(C)c(=O)n2[nH]1 | > 25 µM (inactive) | > 25 µM |
| Cc1cc2c3c(c1)C1(SCC(=O)N1c1ccc(F)cc1)C(=O)N3C(C)(C)CC2C (centres undefined) | > 25 µM (inactive) | > 25 µM |
| COc1ccc(NC(=S)NC(NC(=O)c2ccc(Cl)cc2Cl)C(Cl)(Cl)Cl)c([N+](=O)[O-])c1 (centres undefined) | 11.4 µM | > 25 µM |
| Cc1ccccc1OCC(=O)Nc1ccccc1N1CCC(C)CC1 | 16.1 µM | > 25 µM |
| CC1(C)CC(C(CCN(Cc2ccccc2)C(=O)c2ccco2)c2ccc(F)cc2)CCO1 (centres undefined) | 16.8 µM | > 25 µM |
| Cc1ccc(-c2cc(C(F)F)n3ncc(C(=O)N4CCN5CCCC5C4)c3n2)cc1 (centres undefined) | > 25 µM (inactive) | > 25 µM |
| CCCCN(CCCC)C1=Nc2ccccc2N/C1=C(/C#N)C(=O)OCC | 6.94 µM | > 25 µM |
| Cc1cc(C)nc(Nc2ncc(O)n2-c2ccccc2)n1 | > 25 µM (inactive) | > 25 µM |
| CC1CCc2nc(NC(=O)CN3CCN(c4ccc(F)cc4)CC3)sc2C1 (centres undefined) | > 25 µM (inactive) | 15.9 µM |
| Cc1nc(N2CCCCC2)c2c(C)c(C(=O)Nc3cccc(C(F)(F)F)c3)sc2n1 | 9.62 µM | > 25 µM |
| CC(C)CNS(=O)(=O)c1ccc(S(=O)(=O)N2CCCN(Cc3ccccc3)C2)cc1 | > 25 µM (inactive) | > 25 µM |
| CC(C)(C)NC(=O)NC(=O)COC(=O)Cc1coc2ccc3ccccc3c12 | 21.2 µM | > 25 µM |
| N#Cc1c(NC(=S)NC(=O)C2CCCC2)sc2c1CCCCC2 | 10.5 µM | > 25 µM |
| O=C(CSCc1cccc(Cl)c1)Nc1ccccc1-c1ccccc1 | 12.1 µM | > 25 µM |
| CCn1ccnc1CN1CCc2c([nH]c3ccccc23)C1CC(C)C (centres undefined) | > 25 µM (inactive) | > 25 µM |
| CCOC(=O)c1c(-c2ccc(C)cc2)csc1NC(=O)C1CCCO1 (centres undefined) | > 25 µM (inactive) | > 25 µM |
| CCCCn1c(N2CCC(Cc3ccccc3)CC2)nc2c1c(=O)[nH]c(=O)n2C | 13.7 µM | > 25 µM |
| CC(C)Nc1nc(Oc2cccc(Cl)c2Cl)cc(C(F)(F)F)n1 | 23.6 µM | > 25 µM |
| Cc1cc(N/N=C/c2ccc(O)c(C)c2O)nc(-c2ccccc2O)n1 | > 25 µM (inactive) | > 25 µM |

| SMILES | IC50 (WT cells) | IC50 [1] |
| --- | --- | --- |
| O=C(NCC(c1cccnc1)N1CCOCC1)c1ccco1 (centres undefined) | > 25 µM (inactive) | > 25 µM |
| Cc1oc(-c2ccccc2)nc1CN1C(=O)CN=C(c2ccccc2)c2ccccc21 | > 25 µM (inactive) | > 25 µM |
| CC1CCN(C(=O)/C=C/c2ccc(C(C)(C)C)cc2)CC1 | > 25 µM (inactive) | > 25 µM |
| O=C(O)Cn1c(CC(=O)N2CCCC2)nc2ccccc21 | > 25 µM (inactive) | > 25 µM |
| Cc1cc(C)cc(NC(=S)Nc2cccc3cnccc23)c1 | > 25 µM (inactive) | > 25 µM |
| COc1cc(CNCCO)cc(Br)c1OCc1ccccc1Cl | > 25 µM (inactive) | 23.8 µM |
| COc1ccccc1-c1cc(C(F)(F)F)nc(NCc2cccs2)n1 | 11.2 µM | > 25 µM |
| CC(C)C(=O)Nc1ccc(C(=O)NNC(=O)CCCOc2ccc(Cl)cc2Cl)cc1 | > 25 µM (inactive) | > 25 µM |
| O=c1c2c3c(sc2nc2n1CCC2)CCC3 | > 25 µM (inactive) | > 25 µM |
| CC(C)CCN(C(=S)Nc1cccc(F)c1)C(C)c1cccs1 (centres undefined) | 19.4 µM | > 25 µM |
| Cc1cc(C)cc(NC(=S)NC2CC3CCC(C2)N3Cc2ccco2)c1 (centres undefined) | > 25 µM (inactive) | > 25 µM |
| CCOP(=O)(OCC)C(Nc1cccc(C(F)(F)F)c1)c1ccc(Br)cc1 (centres undefined) | 16.3 µM | > 25 µM |
| COC(=O)Nc1snnc1C | > 25 µM (inactive) | > 25 µM |
| O=C(COc1ccccc1[N+](=O)[O-])N/N=C/C=C/c1ccco1 | > 25 µM (inactive) | > 25 µM |
| Cc1ccc(NNC(=O)C(O)(c2cccc(C(F)(F)F)c2)c2cccc(C(F)(F)F)c2)cc1 | 22.3 µM | > 25 µM |
| Cc1ccc(CNCC(O)(c2ccccc2)c2ccc(Cl)cc2)cc1 (centres undefined) | 18.7 µM | 24.9 µM |
| O=C(c1cnc(-c2ccc(Cl)cc2)s1)c1ccc(Cl)cc1Cl | 14.6 µM | > 25 µM |
| Cc1ccc(C(NC(=O)NC(C)c2ccccc2)C(Cl)(Cl)Cl)cc1F (centres undefined) | 10.9 µM | > 25 µM |
| Cc1cc(C(=O)CSc2nnc(-c3ccc(Cl)cc3)n2CC2CCCO2)c(C)n1C (centres undefined) | > 25 µM (inactive) | > 25 µM |
| CCn1nccc1C(=O)Nc1ccc(S(=O)(=O)NC23CC4CC(CC(C4)C2)C3)cc1 | > 25 µM (inactive) | > 25 µM |
| N#C[C@H]1[C@H](c2ccccc2)[C@](C#N)(C(=O)c2ccccc2)[C@@H]2C=Cc3ccccc3N21 | > 25 µM (inactive) | > 25 µM |

| SMILES | IC50 (WT cells) | IC50 [1] |
| --- | --- | --- |
| CCOC(=O)c1c(NC(=O)CN2CCN(C(=O)c3ccco3)CC2)sc2c1CCCC2 | 23.2 µM | > 25 µM |
| CC1CCN(c2nc(Cl)nc(Nc3ccc([N+](=O)[O-])cc3)n2)CC1 | 7.41 µM | > 25 µM |
| Clc1cncc(Cl)c1NNc1c2ccccc2nc2ccccc12 | > 25 µM (inactive) | > 25 µM |
| Cc1ccc(NC(=S)Nc2ccc(C(C)C)cc2)cc1S(=O)(=O)N1CCCCCC1 | 15 µM | > 25 µM |
| CCOC(=O)/C(=C\c1cccnc1)C(=O)c1cc(C(C)=O)c(Nc2ccccc2)s1 | 4.87 µM | > 25 µM |
| O=C(C1CCCCC1)N(Cc1ccccc1)c1ccccn1 | > 25 µM (inactive) | > 25 µM |
| CCOc1ccc(NC(=S)N(CCc2c(C)[nH]c3ccc(C)cc23)Cc2ccco2)cc1 | 6.2 µM | > 25 µM |
| COc1cccc(-c2cnc(OC(C)(C)C)nc2OC(C)(C)C)c1 | 24 µM | > 25 µM |
| CCCOc1ccc(C2C(C(=O)c3ccco3)=C(O)C(=O)N2CCN2CCOCC2)cc1OC (centres undefined) | > 25 µM (inactive) | > 25 µM |
| Cc1ccc(NC(=O)C2(c3ccccc3)CC2(Cl)Cl)cc1C (centres undefined) | > 25 µM (inactive) | > 25 µM |
| COC(=O)C1C(=O)NCC1c1ccccc1 (centres undefined) | > 25 µM (inactive) | > 25 µM |
| CC(C)C(=O)Nc1cc(S(=O)(=O)Nc2ccc(Cl)cc2)ccc1Cl | 22 µM | > 25 µM |
| COc1ccc(Cn2nc(-c3ccccc3)c(N3CCCCC3)cc2=O)cc1 | 10.3 µM | > 25 µM |
| CCOc1ccccc1N1CCN(C(=O)c2ccc3[nH]c4c(c3c2)CCCC4)CC1 | 17.1 µM | > 25 µM |
| O=C(Nc1ccc(F)cc1)N1CC2CC(C1)c1cccc(=O)n1C2 (centres undefined) | > 25 µM (inactive) | > 25 µM |
| CCCc1cc(-c2nc(N)ncc2-c2ccc3c(c2)OCCCO3)c(O)cc1OC | 14 µM | > 25 µM |
| Cc1ccc(O)c(-c2cc(-c3ccccc3[N+](=O)[O-])[nH]n2)c1 | > 25 µM (inactive) | > 25 µM |
| CCn1c(CCCOc2ccc(Cl)cc2Cl)nnc1SCC(=O)Nc1cc(F)ccc1C | 15.9 µM | > 25 µM |
| CCOC(=O)c1c(C)n(-c2ccc(C)cc2)c2ccc(OCC(O)CNCC3CCCO3)cc12 (centres undefined) | 15 µM | > 25 µM |
| CN1CCN(CCCNC(=O)c2ccc(/C=C3/Sc4ccccc4N(Cc4cccc(Cl)c4)C3=O)cc2)CC1 | 12.1 µM | > 12.5 µM |
| CCOC(=O)CSc1n[nH]c(-c2cccnc2)n1 | > 25 µM (inactive) | > 25 µM |

| SMILES | IC50 (WT cells) | IC50 [1] |
| --- | --- | --- |
| Cn1c(CN2CCCCC2)nc2cc(NC(=O)c3ccc(Cl)cc3)ccc21 | > 25 µM (inactive) | > 25 µM |
| COc1cc(/C=C2\SC(=O)N(c3ccccc3Cl)C2=O)cc([N+](=O)[O-])c1O | 13.6 µM | 20.8 µM |
| COc1ccc(C(C)(C)C)cc1NC(=O)c1cncc(Br)c1 | > 25 µM (inactive) | > 25 µM |
| c1ccc(-c2nc(N3CCCCC3)nc3ccccc23)cc1 | 18.3 µM | 19.4 µM |
| Cc1ccccc1CN(C)CC(=O)Nc1ccccc1-c1ccccc1 | 16.3 µM | > 25 µM |
| COCCN1C(=O)/C(=C/c2ccc(OCc3ccc(C(=O)O)cc3)c(OC)c2)SC1=Nc1ccccc1 | > 25 µM (inactive) | > 25 µM |
| Clc1ccc(CNc2nc(CN3CCOCC3)nc3scc(-c4ccccc4)c23)cc1 | 13.2 µM | 17.9 µM |
| Oc1cccc(C2c3[nH]c4ccccc4c3CCN2Cc2cnn(-c3ccccc3)c2)c1 (centres undefined) | > 25 µM (inactive) | > 25 µM |
| Cc1ccc(-c2nc(N)sc2-c2ccc(C)cc2)cc1 | 9.96 µM (inactive) | 9.46 µM |
| CC(C)OC(=O)C(C(=O)C(F)(F)F)c1cc(NS(=O)(=O)c2ccc3ccccc3c2)c2ccccc2c1O (centres undefined) | 15.1 µM | > 25 µM |
| O=C1C(Cl)=C(NC2CCCCC2)C(=O)N1Cc1ccccc1 | 19.1 µM | > 25 µM |
| COc1ccc(NC(=O)c2csc(Cc3ccc(Cl)cc3)n2)cc1 | 16 µM | 24.4 µM |
| CC(C)(C)n1nnnc1C(c1cccnc1)N(Cc1ccccc1)Cc1cccs1 (centres undefined) | 9.97 µM | > 25 µM |
| O=C(CCn1nnc2ccccc21)Nc1nnc(Cc2ccccc2)s1 | > 25 µM (inactive) | > 25 µM |
| CCCCC(=O)O[C@H]1CC[C@H]2[C@@H]3CCc4cc(O)ccc4[C@H]3CC[C@]12C | 12.3 µM | > 25 µM |
| COc1ccc(NC(=O)CSc2ccc3c(c2)OCCO3)cc1OC | > 25 µM (inactive) | > 25 µM |
| COc1ccc(C(C(=O)Nc2ccc(F)cc2)N(C(=O)Cn2nnc3ccccc32)C2CC2)cc1 (centres undefined) | > 25 µM (inactive) | > 25 µM |
| CCOc1ccc(S(=O)(=O)N2CCN(C(=O)c3cc4c(s3)CCCC4)CC2)cc1 | 4.98 µM | > 25 µM |
| C/C(=N\Nc1cc(-c2ccccc2)nc(-c2ccccc2)n1)c1ccc(O)c(C)c1 | 3.31 µM | > 25 µM |
